Results as given in patent EP0041644B1 (priority 1980, dated 1981).
Like-named read-outs stand apart in the source and are kept apart here.

What was measured:
L-1210 Leukemia = L-1210 Leukemia (Table IX); format: in vivo, mice
Experimental: The sodium and ammonium salts of the present invention were tested against transplantable mouse tumors as indicated below.

B16 Melanoma [1] = assay: B16 Melanoma - Test 2 (ip tumor brei); format: in vivo, mice; conditions: QD +9
B16 Melanoma [2] = assay: B16 Melanoma - Test 1 (ip tumor brei); format: in vivo, mice; conditions: for Effect MST % T/C / MST Days: QD 1→9, vehicle H2O
L1210 Leukemia [3] = assay: L1210 Leukemia - Test 3 (vehicle comparison); format: in vivo, mice; conditions: for Effect MST % T/C / MST Days: Day 1 only
L1210 Leukemia [4] = assay: L1210 Leukemia - Test 1 (survival of tumor-bearing mice); format: in vivo; conditions: for Effect MST % T/C / MST Days: d. 1 only
Text: This evaluation of the ammonium salt finds the drug to be active against L1210 (ip) leukemia when administered ip one day post-implant of 10^6 L1210 cells (maximum T/C was 164%). […] The vehicle for the ammonium salt was water.

## O=C1[O][Pt-2]2([NH2+]CC3(CCCCC3)C[NH2+]2)[O]C(=O)C1O [2-hydroxymalonato (1,1-diaminomethylcyclohexane)platinum (II)]
Water solubility
  Water-solubility at room temperature: < 1600 µg/mL
L-1210 Leukemia; 2 mg/kg/inj ip, qd 1→9
  Average Weight Change,g: -1.3 g
  Effect MST % T/C: 138 % T/C
  MST Days: 9.0 days
  Survivors Day 5(45): 6/6
L-1210 Leukemia; 4 mg/kg/inj ip, qd 1→9
  Average Weight Change,g: -1.7 g
  Effect MST % T/C: 192 % T/C
  MST Days: 12.5 days
  Survivors Day 5(45): 6/6
L-1210 Leukemia; 8 mg/kg/inj ip, qd 1→9
  Average Weight Change,g: -2.1 g
  Effect MST % T/C: 269 % T/C
  MST Days: 17.5 days
  Survivors Day 5(45): 6/6
L-1210 Leukemia; 12 mg/kg/inj ip, Day 1
  Average Weight Change,g: -1.6 g
  Effect MST % T/C: 185 % T/C
  MST Days: 12.0 days
  Survivors Day 5(45): 6/6
L-1210 Leukemia; 12 mg/kg/inj ip, qd 1→9
  Average Weight Change,g: -2.1 g
  Effect MST % T/C: 269 % T/C
  MST Days: 17.5 days
  Survivors Day 5(45): 6/6
L-1210 Leukemia; 18 mg/kg/inj ip, Day 1
  Average Weight Change,g: -2.0 g
  Effect MST % T/C: 169 % T/C
  MST Days: 11.5 days
  Survivors Day 5(45): 6/6
L-1210 Leukemia; 24 mg/kg/inj ip, Day 1
  Average Weight Change,g: -2.8 g
  Effect MST % T/C: 223 % T/C
  MST Days: 14.5 days
  Survivors Day 5(45): 6/6
L-1210 Leukemia; 36 mg/kg/inj ip, Day 1
  Average Weight Change,g: -3.6 g
  Effect MST % T/C: 246 % T/C
  MST Days: 16.0 days
  Survivors Day 5(45): 5/6
L-1210 Leukemia; qd 1→9 (cis-DDP 2.4, parent 8 and 12, sodium salt 12 mg/kg/injection)
  maximum T/C: 269%
L-1210 Leukemia; single ip injection at maximum tolerated dose (cis-DDP 8 mg/kg, the two others 36 mg/kg)
  maximum T/C: 246%

## [NH2][Pt]1([NH2])[O]C(=O)C([O-])C(=O)[O]1.[NH4+] [Example 1, 2-Hydroxymalonato diammine platinum (II), ammonium salt]
B16 Melanoma [1]; 2 mg/kg/day ip
  Average Weight Change: -0.7 g
  Effect MST % T/C: 153 % T/C
  MST Days: 31.5 days
B16 Melanoma [1]; 4 mg/kg/day ip
  Average Weight Change: -2.0 g
  Effect MST % T/C: 158 % T/C
  MST Days: 32.5 days
B16 Melanoma [1]; 8 mg/kg/day ip
  Average Weight Change: -0.9 g
  Effect MST % T/C: 180 % T/C
  MST Days: 37.0 days
B16 Melanoma [1]; 16 mg/kg/day ip
  Average Weight Change: -1.3 g
  Effect MST % T/C: 234 % T/C
  MST Days: 48.0 days
B16 Melanoma [1]; Day 10, 2 mg/kg/day ip
  Survivors Day 10 (60): 9/10
B16 Melanoma [1]; Day 10, 4 mg/kg/day ip
  Survivors Day 10 (60): 9/10
B16 Melanoma [1]; Day 10, 8 mg/kg/day ip
  Survivors Day 10 (60): 9/10
B16 Melanoma [1]; Day 10, 16 mg/kg/day ip
  Survivors Day 10 (60): 8/10
B16 Melanoma [1]; Day 60 (figure in parentheses), 16 mg/kg/day ip
  Survivors Day 10 (60): 2
B16 Melanoma [2]; 4 mg/kg/day ip
  Effect MST % T/C: 192 % T/C
  MST Days: 37.5 days
B16 Melanoma [2]; 8 mg/kg/day ip
  Effect MST % T/C: 190 % T/C
  MST Days: 37.0 days
B16 Melanoma [2]; 16 mg/kg/day ip
  Effect MST % T/C: 121 % T/C
  MST Days: 23,5 Days
B16 Melanoma [2]; 24 mg/kg/day ip
  Effect MST % T/C: 36 % T/C
  MST Days: 7.0 days
B16 Melanoma [2]; 32 mg/kg/day ip
  Effect MST % T/C: 31 % T/C
  MST Days: 6.0 days
B16 Melanoma [2]; ip B16, ip QD 1→9
  maximum T/C: 190%
L1210 Leukemia [3]; 40 mg/kg ip, vehicle H2O
  Effect MST % T/C: 143 % T/C
  MST Days: 10.0 days
L1210 Leukemia [3]; 40 mg/kg ip, vehicle Saline
  Effect MST % T/C: 114 % T/C
  MST Days: 8.0 days
L1210 Leukemia [3]; 60 mg/kg ip, vehicle H2O
  Effect MST % T/C: 143 % T/C
  MST Days: 10.0 days
L1210 Leukemia [3]; 60 mg/kg ip, vehicle Saline
  Effect MST % T/C: 100 % T/C
  MST Days: 7.0 days
L1210 Leukemia [3]; 80 mg/kg ip, vehicle H2O
  Effect MST % T/C: 143 % T/C
  MST Days: 10.0 days
L1210 Leukemia [3]; 80 mg/kg ip, vehicle Saline
  Effect MST % T/C: 114 % T/C
  MST Days: 8.0 days
L1210 Leukemia [3]; 100 mg/kg ip, vehicle H2O
  Effect MST % T/C: 107 % T/C
  MST Days: 7.5 days
L1210 Leukemia [3]; 100 mg/kg ip, vehicle Saline
  Effect MST % T/C: 143 % T/C
  MST Days: 10.0 days
L1210 Leukemia [3]; single dose ip, saline and water as vehicles
  Maximum increase in median lifespan (T/C): 143%
other
  Water-solubility at room temperature: 10000 µg/mL
water
  Solubility in H2O at 22-25°C: 10000 µg/mL
L1210 Leukemia [4]; 10 mg/kg/day ip
  Effect MST % T/C: 136 % T/C
  MST Days: 9.5 days
L1210 Leukemia [4]; 20 mg/kg/day ip
  Effect MST % T/C: 129 % T/C
  MST Days: 9.0 days
L1210 Leukemia [4]; 40 mg/kg/day ip
  Effect MST % T/C: 143 % T/C
  MST Days: 10.0 days
L1210 Leukemia [4]; 60 mg/kg/day ip
  Effect MST % T/C: 157 % T/C
  MST Days: 11.0 days
L1210 Leukemia [4]; 80 mg/kg/day ip
  Effect MST % T/C: 157 % T/C
  MST Days: 11.0 days
L1210 Leukemia [4]; 100 mg/kg/day ip
  Effect MST % T/C: 164 % T/C
  MST Days: 11.5 days
L1210 Leukemia [4]; ip one day post-implant of 10^6 L1210 cells, vehicle water
  maximum T/C: 164%
